From PubChem BioAssay AID248 (DTP/NCI, 2004)
Where “and” joins values, the source holds several entries; their conditions need not be identical. Equal entries are not always repeated. Inconclusive results and toxic doses are left out. Cut-off read from the data, not from the text of the source: active = T/C of 150% or more; inactive = T/C below 125%.

System: L1210 leukemia ip in BDF1 mice, survival T/C
Experiment: NCI In Vivo Anticancer Drug Screen. Data for tumor model L1210 Leukemia (intraperitoneal) in B6D2F1 (BDF1) mice
Conditions: endpoint: mean survival time, higher = longer survival
How it was run: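 Read-out is survival time, reported as the treated-group measurement over the vehicle-control measurement.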

[1] = dose: 100.0 mg/kg/injection, schedule: Q04DX003 (ip), vehicle: saline with Tween-80
[2] = dose: 100.0 mg/kg/injection, schedule: Q01DX001 (ip), vehicle: saline
[3] = dose: 200.0 mg/kg/injection, schedule: Q01DX001 (ip), vehicle: saline
[4] = dose: 400.0 mg/kg/injection, schedule: Q01DX001 (ip), vehicle: saline
[5] = dose: 50.0 mg/kg/injection, schedule: Q01DX001 (ip), vehicle: Klucel (hydroxypropylcellulose) (HPC)
[6] = dose: 100.0 mg/kg/injection, schedule: Q01DX001 (ip), vehicle: Klucel (hydroxypropylcellulose) (HPC)
[7] = dose: 100.0 mg/kg/injection, schedule: Q04DX002 (ip), vehicle: Klucel (hydroxypropylcellulose) (HPC)
[8] = dose: 200.0 mg/kg/injection, schedule: Q01DX001 (ip), vehicle: Klucel (hydroxypropylcellulose) (HPC)
[9] = dose: 200.0 mg/kg/injection, schedule: Q04DX002 (ip), vehicle: Klucel (hydroxypropylcellulose) (HPC)
[10] = dose: 100.0 mg/kg/injection, schedule: Q01DX009 (ip), vehicle: saline with Tween-80
[11] = dose: 200.0 mg/kg/injection, schedule: Q01DX009 (ip), vehicle: saline with Tween-80
[12] = dose: 100.0 mg/kg/injection, schedule: Q04DX003 (ip), vehicle: Klucel (hydroxypropylcellulose) (HPC)
[13] = dose: 200.0 mg/kg/injection, schedule: Q04DX003 (ip), vehicle: Klucel (hydroxypropylcellulose) (HPC)
[14] = dose: 400.0 mg/kg/injection, schedule: Q04DX003 (ip), vehicle: Klucel (hydroxypropylcellulose) (HPC)

Measured: T/C

O=P(N1CCOCC1)(N1CCOCC1)N1CCOCC1
inactive: dose: 100.0 mg/kg/injection, schedule: Q04DX003 (ip), vehicle: saline 100 % of control and 112 % of control | dose: 200.0 mg/kg/injection, schedule: Q04DX003 (ip), vehicle: saline 98 % of control and 106 % of control | dose: 400.0 mg/kg/injection, schedule: Q04DX003 (ip), vehicle: saline 97 % of control and 109 % of control

CCCCCCCCC[n+]1cccc(C(N)=O)c1
inactive: [1] 106 % of control

CC(C)C1=CC23CCC4C(C)(C(=O)O)CCCC4(C)C2CC1C1C(=O)c2ccccc2C(=O)C13 (stereo unspecified)
inactive: [2] 90 % of control | [3] 95 % of control | [4] 91 % of control

[N-]=[N+]=NCc1nnc2ncnc(N)c2n1
inactive: dose: 25.0 mg/kg/injection, schedule: Q01DX009 (ip), vehicle: saline with Tween-80 88 % of control | dose: 25.0 mg/kg/injection, schedule: Q04DX003 (ip), vehicle: saline with Tween-80 94 % of control | dose: 50.0 mg/kg/injection, schedule: Q04DX003 (ip), vehicle: saline with Tween-80 105 % of control | dose: 100.0 mg/kg/injection, schedule: Q01DX001 (ip), vehicle: saline with Tween-80 95 % of control | [1] 102 % of control

CCOC(=O)NC(NC(=O)OCC)C(Br)(Br)Br
inactive: dose: 25.0 mg/kg/injection, schedule: Q01DX001 (ip), vehicle: Klucel (hydroxypropylcellulose) (HPC) 112 % of control | dose: 25.0 mg/kg/injection, schedule: Q04DX002 (ip), vehicle: Klucel (hydroxypropylcellulose) (HPC) 104 % of control | [5] 112 % of control | dose: 50.0 mg/kg/injection, schedule: Q04DX002 (ip), vehicle: Klucel (hydroxypropylcellulose) (HPC) 106 % of control | [6] 108 % of control | [7] 104 % of control | [8] 116 % of control | [9] 102 % of control

O=Cc1c(Cl)n(C(=O)c2ccccc2Cl)c2ccccc12
inactive: [7] 97 % of control | [9] 86 % of control

Cc1ccc(C2Nc3ccccc3S(=O)(=O)C2c2ccccc2)cc1 (stereo unspecified)
inactive: [6] 95 % of control | [8] 106 % of control | dose: 400.0 mg/kg/injection, schedule: Q01DX001 (ip), vehicle: Klucel (hydroxypropylcellulose) (HPC) 101 % of control

CC(=O)c1cc(F)ccc1O
inactive: [1] 102 % of control | dose: 200.0 mg/kg/injection, schedule: Q04DX003 (ip), vehicle: saline with Tween-80 97 % of control | dose: 400.0 mg/kg/injection, schedule: Q04DX003 (ip), vehicle: saline with Tween-80 94 % of control

COc1ccccc1NC(=O)CC(C)=O
inactive: [5] 100 % of control | [6] 100 % of control | [10] 103 % of control | [8] 106 % of control | [11] 95 % of control | dose: 400.0 mg/kg/injection, schedule: Q01DX009 (ip), vehicle: saline with Tween-80 97 % of control

Clc1ccccc1C(c1ccc(-c2ccccc2)cc1)(c1ccc(-c2ccccc2)cc1)n1ccnc1
inactive: [12] 95 % of control | [13] 104 % of control | [14] 90 % of control

CCC1=C(C)C(C)OC(C)=C1C (stereo unspecified) (tested in a mixture with another compound)
inactive: [2] 93 % of control | [3] 90 % of control | [4] 93 % of control

CCOC(OCC)c1nc(N)nc(N)c1-c1ccc(Cl)c(Cl)c1
inactive: dose: 11.0 mg/kg/injection, schedule: Q01DX009 (ip), vehicle: other 98 % of control | dose: 22.5 mg/kg/injection, schedule: Q01DX009 (ip), vehicle: other 101 % of control | dose: 45.0 mg/kg/injection, schedule: Q01DX009 (ip), vehicle: other 101 % of control | dose: 89.0 mg/kg/injection, schedule: Q01DX009 (ip), vehicle: saline 102 % of control | dose: 90.0 mg/kg/injection, schedule: Q01DX009 (ip), vehicle: other 115 % of control | [2] 100 % of control | dose: 134.0 mg/kg/injection, schedule: Q01DX009 (ip), vehicle: saline 119 % of control | [3] 107 % of control | dose: 300.0 mg/kg/injection, schedule: Q01DX009 (ip), vehicle: saline 101 % of control

Cc1cc(N(CCCl)CCCl)ccc1N=Nc1ccccc1C(=O)O
inactive: dose: 3.1 mg/kg/injection, schedule: Q01DX Z (ip), vehicle: carboxymethylcellulose (CMC) 116 % of control | dose: 5.0 mg/kg/injection, schedule: Q01DX010 (ip), vehicle: saline 110 % of control and 111 % of control | dose: 10.0 mg/kg/injection, schedule: Q01DX010 (ip), vehicle: saline 119 % of control and 122 % of control | dose: 18.0 mg/kg/injection, schedule: Q01DX Z (ip), vehicle: carboxymethylcellulose (CMC) 122 % of control | dose: 20.0 mg/kg/injection, schedule: Q01DX010 (ip), vehicle: saline 121 % of control | dose: 25.0 mg/kg/injection, schedule: Q01DX Z (ip), vehicle: carboxymethylcellulose (CMC) 107 % of control | dose: 27.0 mg/kg/injection, schedule: Q01DX Z (ip), vehicle: carboxymethylcellulose (CMC) 114 % of control | dose: 40.0 mg/kg/injection, schedule: Q01DX010 (ip), vehicle: saline 88 % of control | dose: 40.0 mg/kg/injection, schedule: Q01DX Z (ip), vehicle: carboxymethylcellulose (CMC) 86 % of control

CCCCC(=O)N/N=C/c1ccc(OC)c(O)c1
inactive: [2] 109 % of control | [3] 104 % of control | [4] 106 % of control

Cc1nn(-c2ccccc2)c(N)c1C#N
inactive: dose: 25.0 mg/kg/injection, schedule: Q01DX009 (ip), vehicle: saline 100 % of control | dose: 50.0 mg/kg/injection, schedule: Q01DX009 (ip), vehicle: saline 97 % of control | dose: 75.0 mg/kg/injection, schedule: Q01DX009 (ip), vehicle: saline 98 % of control | dose: 100.0 mg/kg/injection, schedule: Q01DX009 (ip), vehicle: saline 103 % of control and 121 % of control | dose: 150.0 mg/kg/injection, schedule: Q01DX009 (ip), vehicle: saline 103 % of control | dose: 200.0 mg/kg/injection, schedule: Q01DX009 (ip), vehicle: saline 106 % of control

CCN(/C=C1/SC(=S)NC1=O)CC
inactive: dose: 50.0 mg/kg/injection, schedule: Q01DX009 (ip), vehicle: saline with Tween-80 109 % of control | [10] 98 % of control | [11] 119 % of control

COc1cc2c(cc1OCc1ccccc1)C(c1cc(OC)c(OC)c(OC)c1)=C1C(=O)OCC1C2 (stereo unspecified)
inactive: [2] 98 % of control | [3] 97 % of control | [4] 97 % of control

Nc1ccc(CCNS(=O)(=O)c2ccc(S(=O)(=O)F)cc2)cc1
inactive: [2] 103 % of control | [3] 97 % of control | [4] 107 % of control

FC(F)(F)c1nc(Cl)c2cn[nH]c2n1
inactive: dose: 44.0 mg/kg/injection, schedule: Q01DX Z (ip), vehicle: methylcellulose (MC) 104 % of control | dose: 66.0 mg/kg/injection, schedule: Q01DX Z (ip), vehicle: methylcellulose (MC) 103 % of control | dose: 100.0 mg/kg/injection, schedule: Q01DX Z (ip), vehicle: methylcellulose (MC) 100 % of control

O=C(NC1c2cc(Cl)ccc2-c2c(Cl)cc(Cl)cc21)C12CC3CC(CC(C3)C1)C2 (stereo unspecified)
inactive: dose: 100.0 mg/kg/injection, schedule: Q01DX009 (ip), vehicle: Klucel (hydroxypropylcellulose) (HPC) 96 % of control | [12] 100 % of control | dose: 200.0 mg/kg/injection, schedule: Q01DX009 (ip), vehicle: Klucel (hydroxypropylcellulose) (HPC) 97 % of control | [13] 93 % of control | dose: 400.0 mg/kg/injection, schedule: Q01DX009 (ip), vehicle: Klucel (hydroxypropylcellulose) (HPC) 104 % of control | [14] 96 % of control

CCCCC(=O)N/N=C/c1ccc(I)cc1
inactive: dose: 100.0 mg/kg/injection, schedule: Q01DX001 (ip), vehicle: carboxymethylcellulose (CMC) 91 % of control | dose: 200.0 mg/kg/injection, schedule: Q01DX001 (ip), vehicle: carboxymethylcellulose (CMC) 87 % of control | dose: 400.0 mg/kg/injection, schedule: Q01DX001 (ip), vehicle: carboxymethylcellulose (CMC) 91 % of control

[N-]=[N+]=Nc1ccc(S(N)(=O)=O)cc1
inactive: [2] 99 % of control | [3] 94 % of control | [4] 93 % of control
